42 molecules from patent EP4782449A1, “TRICYCLIC PYRIDINE COMPOUND ACTING AS SARM1 ENZYME ACTIVITY INHIBITOR, AND USE THEREOF” (Artivila (ShenZhen) Innovation Center, Ltd., priority 2023, dated 2025) can be followed below.

The subject of assay [1] is dorsal root ganglion explants. Kind of assay: Axonal Wallerian degeneration assay in mouse DRG explant culture. Format: cell-based, C57BL/6 male mice. The conditions noted are these: 10 µM test compound, 2 hours pretreatment, axons transected, images at 0 hour and 24 hours. An excerpt: The experimental method was based on Gerdts J et al. (Gerdts J, Sasaki Y, Vohra B, Marasa J, Milbrandt J. Image-based screening identifies novel roles for IkappaB kinase and glycogen synthase kinase 3 in axonal degeneration. J Biol Chem. 2011 Aug 12;286(32):28011-8).
Dorsal root ganglia were dissected from 2-month-old C57BL/6 male mice and placed in 35 mm culture dishes containing pre-cooled HBSS buffer. Excess tissue from each dorsal root ganglion was removed and cut into 2-3 explants using a scalpel, and the explants were planted in wells of a 96-well plate coated with 100 ng/mL Matrigel (Corning). 100 µL of DRG culture medium (Neurobasal medium (Gibco) containing 2% B-27 (Gibco), 1% GlutaMax (Gibco), and 10 ng/mL NGF (MCE)) was added, then cultured in a 37°C incubator for one week, with medium change on day 4, and experiments were performed on day 8.
0.1 µL of 10 mM test compound was dissolved in 100 µL DRG culture medium to prepare new culture medium containing 10 µM test compound. The culture medium in the 96-well plate was aspirated and new culture medium containing the test compound was added. Then the dorsal root ganglion explants were incubated with the medium in a 37°C incubator for 2 hours for pre-protection. After 2-hour pretreatment, a glass electrode was used to transect axons in the area near the tissue block, and bright-field images of axons in the same area were captured at 0 hour and 24 hours post axonal degeneration using a 20x objective lens of a microscope (Olympus). Axonal integrity was evaluated using an in-house developed script.

The target in another assay is T1, SARM1 (Homo sapiens, UniProt Q6SZW1).
T1 construct: inventors produced full-length SARM1 for NAD enzyme activity experiments, and used it for screening; His (C); made in house; host or cells: HEK293 cells, transient transfection; supernatant of digitonin lysate, no further purification described
T1 sequence (Q6SZW1 28-724): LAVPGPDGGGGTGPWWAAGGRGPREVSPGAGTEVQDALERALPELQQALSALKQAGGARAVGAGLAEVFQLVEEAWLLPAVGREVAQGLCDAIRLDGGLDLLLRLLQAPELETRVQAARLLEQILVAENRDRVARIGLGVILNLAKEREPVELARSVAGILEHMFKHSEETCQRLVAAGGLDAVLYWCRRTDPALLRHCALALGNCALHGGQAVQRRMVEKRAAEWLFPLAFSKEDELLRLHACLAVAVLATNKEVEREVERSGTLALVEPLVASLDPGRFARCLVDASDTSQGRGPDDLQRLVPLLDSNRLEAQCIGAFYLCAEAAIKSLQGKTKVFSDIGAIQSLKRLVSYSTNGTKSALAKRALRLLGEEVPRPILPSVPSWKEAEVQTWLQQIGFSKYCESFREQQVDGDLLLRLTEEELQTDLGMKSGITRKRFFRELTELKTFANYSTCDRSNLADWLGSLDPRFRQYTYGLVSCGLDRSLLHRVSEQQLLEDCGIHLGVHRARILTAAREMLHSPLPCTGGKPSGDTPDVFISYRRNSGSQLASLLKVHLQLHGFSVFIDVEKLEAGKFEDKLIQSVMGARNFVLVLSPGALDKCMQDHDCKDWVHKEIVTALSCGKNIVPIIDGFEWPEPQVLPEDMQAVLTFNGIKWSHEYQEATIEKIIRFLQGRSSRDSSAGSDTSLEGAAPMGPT
Kind of assay: In vitro biochemical assay for inhibiting SARM1 enzyme activity (PC6 fluorescence, NADase). As to conditions: full-length SARM1 from transfected HEK293 cells; 50 µM NAD, 50 µM PC6, 50 µM NMN activator; room temperature, 30 minutes; read-out: IC50. How it is done:
The gene sequence of SARM1 protein was amplified using PCR, and the PCR amplification product was constructed into pcDNA3.1-HIS-C plasmid. The above construction was completed by YouBio(Hunan, China). HEK293 cells were cultured in 10 cm dishes using DMEM, and the cells were transfected with 15 μg pcDNA3.1-SARM[…]-C expression plasmid on the following day. Cells were collected 48 hours after transfection, and SARM1 protein expressed in the cells was obtained by digitonin lysis for in vitro activity assay experiments. The specific procedure was as follows: Cells were digested with trypsin-EDTA, then centrifuged at 1000 rpm for 5 minutes, washed once with PBS, and then resuspended in PBS containing 100 μM digitonin, with 0.6 mL PBS for the cells in per 10 cm dish, and lysed for 5 minutes. […] Then the supernatant containing SARM1 protein was collected by centrifugation at 5000 rpm for 10 minutes. […] A group without inhibitor was used as control group. All mixtures were incubated at room temperature for 10 minutes. Then, 50 μM NAD and 50 μM PC6 as substrates and 50 μM NMN as an activator were added to the SARM1 protein incubated with the inhibitor, and the reaction was carried out at room temperature for 30 minutes. The concentrations of each component were the final concentrations in the reaction system. […] Finally, the reaction rate was used to represent the protein activity and calculate the half-maximal inhibitory concentration.

What is called IC50 is the midpoint of a concentration-inhibition curve. `O=C(CCc1cccnc1)Nc1ccc2c(c1)COc1cnccc1-2` [Compound 50]: the “Degree of Protection Against Axonal Wallerian Degeneration” value (from here on “Degree”) in assay [1] is given as “A (substantial protection (A) >50%)”. For the same molecule, on SARM1, the IC50 was 100 to 1000 nM. On the same counts, the results for `O=C(NCc1cc(F)c(F)c(F)c1)Nc1ccc2c(c1)COc1cnccc1-2` [Compound 67] are “A (substantial protection (A) >50%)” and less than 100 nM. On the same counts, the results for `O=C1C(Cc2ccc(F)cc2F)CCN1c1ccc2c(c1)COc1cnccc1-2` (stereo not drawn) [Compound 11] are “A (substantial protection (A) >50%)” and 1000 to 10000 nM. For the molecule `COc1ccc(CCC(=O)Nc2ccc3c(c2)COc2cnccc2-3)cc1` [Compound 78], the “Degree” value in assay [1] is “A (substantial protection (A) >50%)”. The IC50 at SARM1 is 100 to 1000 nM. For `O=C1C(Cc2cccc(Cl)c2)CCN1c1ccc2c(c1)COc1cnccc1-2` (stereo not drawn) [Compound 9], in assay [1], the “Degree” value is on record as “A (substantial protection (A) >50%)”. Also, the IC50 at SARM1 was 1000 to 10000 nM. The like results for `N#Cc1ccc(CCC(=O)Nc2ccc3c(c2)COc2cnccc2-3)cc1` [Compound 33] were, in that order, “A (substantial protection (A) >50%)” and less than 100 nM. In the case of `[2H]C1(Cc2ccc(F)cc2)CCN(c2ccc3c(c2)C([2H])([2H])Oc2cnccc2-3)C1=O` (stereo not drawn) [Compound 143, 3-(4-fluorobenzyl)-1-(6H-isochromeno[3,4-c]pyridin-8-yl-6,6-d2)pyrrolidin-2-one-3d], the “Degree” value in assay [1] is given as “A (substantial protection (A) >50%)”. The IC50 at SARM1 was less than 100 nM. As to `NC(Cc1ccc(F)cc1)C(=O)Nc1ccc2c(c1)COc1cnccc1-2` (stereo not drawn) [Compound 52, 2-amino-3-(4-fluorophenyl)-N-(6H-isochromeno[3,4-c]pyridin-8-yl)propanamide], the IC50 on SARM1 fell in the range of 100 to 1000 nM. On to `O=C1C(Cc2ccc(Cl)s2)CCN1c1ccc2c(c1)COc1cnccc1-2` (stereo not drawn) [Compound 7], for which the “Degree” value in assay [1] was “A (substantial protection (A) >50%)”. The IC50 on SARM1 fell in the range of 1000 to 10000 nM. Take `O=C(NCc1ccc(Cl)nc1)Nc1ccc2c(c1)COc1cnccc1-2` [Compound 66]: the IC50 at SARM1 lay within 100 to 1000 nM.

Consider `O=C(Nc1ccc2c(c1)COc1cnccc1-2)C(F)Cc1ccc(Cl)cc1` (stereo not drawn) [Compound 35], for which the IC50 at SARM1 fell in the range of 100 to 1000 nM.

In the case of `O=C(CCc1cccs1)Nc1ccc2c(c1)COc1cnccc1-2` [Compound 138], the “Degree” value in assay [1] is “A (substantial protection (A) >50%)”. Further, the IC50 at SARM1 is less than 100 nM. Regarding `CN(C(=O)CCc1ccc(F)cc1)c1ccc2c(c1)COc1cnccc1-2` [Compound 49, 3-(4-fluorophenyl)-N-(6H-isochromeno[3,4-c]pyridin-8-yl)-N-methylpropanamide], the IC50 on SARM1 was 1000 to 10000 nM.

For the molecule `O=C(CCc1cccc(Cl)c1)Nc1ccc2c(c1)COc1cnccc1-2` [Compound 31], on SARM1, the concentration for half-maximal inhibition (IC50) is less than 100 nM.

Take `C=Cc1ccc(CC2CCN(c3ccc4c(c3)COc3cnccc3-4)C2=O)cc1` (stereo not drawn) [Compound 149]: the IC50 on SARM1 was in the range of 1000 to 10000 nM. Still for that read-out and setting: the same measure for `O=C(CCc1ccc([N+](=O)[O-])cc1)Nc1ccc2c(c1)COc1cnccc1-2` [Compound 23]: 1000 to 10000 nM. Still for that read-out and setting: to `CC(C)c1cncc2c1-c1ccc(NC(=O)CCc3ccc(F)cc3)cc1CO2` [Compound 141] belongs 1000 to 10000 nM; to `O=C1C(Cc2ccc(Cl)cc2F)CCN1c1ccc2c(c1)COc1cnccc1-2` (stereo not drawn) [Compound 3], 1000 to 10000 nM; to `O=C(CCc1ccc2ccccc2c1)Nc1ccc2c(c1)COc1cnccc1-2` [Compound 81], 1000 to 10000 nM. Still for that read-out and setting: to `O=C(CCc1ccc(Cl)nc1)Nc1ccc2c(c1)COc1cnccc1-2` [Compound 26] belongs less than 100 nM; to `O=C(CCc1ccc2c(c1)OCO2)Nc1ccc2c(c1)COc1cnccc1-2` [Compound 20], less than 100 nM; to `O=C(CCc1cc(F)c(Cl)c(F)c1)Nc1ccc2c(c1)COc1cnccc1-2` [Compound 43], less than 100 nM. Regarding `N#Cc1c(F)cc(CCC(=O)Nc2ccc3c(c2)COc2cnccc2-3)cc1F` [Compound 44], the IC50 at SARM1 is less than 100 nM. Still for that read-out and setting: to `O=C(Cc1ccc(F)cc1)Nc1ccc2c(c1)COc1cnccc1-2` [Compound 51] belongs 1000 to 10000 nM; to `O=C(CCc1cccc2ccccc12)Nc1ccc2c(c1)COc1cnccc1-2` [Compound 82], 1000 to 10000 nM; to `O=C1N(Cc2ccc(F)cc2)CCN1c1ccc2c(c1)COc1cnccc1-2` [Compound 150], less than 100 nM.

Turning to `O=C(NCc1cccc(Cl)c1)Nc1ccc2c(c1)COc1cnccc1-2` [Compound 69], on SARM1, the IC50 fell in the range of 1000 to 10000 nM. For `O=C(CCc1ccc2c(c1)CCO2)Nc1ccc2c(c1)COc1cnccc1-2` [Compound 83], the IC50 on SARM1 was in the range of 100 to 1000 nM. Still for that read-out and setting: the same measure for `O=C1C(Cc2ccc3ocnc3c2)CCN1c1ccc2c(c1)COc1cnccc1-2` (stereo not drawn) [Compound 61]: 100 to 1000 nM. The same measure, in the same setting: the same measure for `CN(C)c1ccc(CCC(=O)Nc2ccc3c(c2)COc2cnccc2-3)cc1` [Compound 79]: 1000 to 10000 nM. As to `C#Cc1ccc(CCC(=O)Nc2ccc3c(c2)COc2cnccc2-3)cc1` [Compound 148], the IC50 on SARM1 was less than 100 nM. On the same count and under the same terms, the same measure for `O=C(NCc1ccc2c(c1)OCO2)Nc1ccc2c(c1)COc1cnccc1-2` [Compound 64]: 1000 to 10000 nM; for `O=C(NCc1cc(F)cc(F)c1)Nc1ccc2c(c1)COc1cnccc1-2` [Compound 48]: 100 to 1000 nM. Still for that read-out and setting: to `O=C1[C@@H](Cc2ccc(F)cc2)CCN1c1ccc2c(c1)COc1cnccc1-2` [Compound 155] belongs less than 100 nM; to `CN(Cc1ccc(F)cc1)C(=O)Nc1cnc2c(c1)COc1cnccc1-2` [Compound 153], less than 100 nM. The same measure, in the same setting: the same measure for `O=C(CCc1ccccc1)Nc1ccc2c(c1)COc1cnccc1-2` [Compound 38]: less than 100 nM. `O=C1C(Cc2ccc(F)cc2)CCN1c1ccc2c(c1)COCc1cnccc1-2` (stereo not drawn) [Compound 53, 1-(5,7-dihydrobenzo[5,6]oxepino[3,4-c]pyridin-9-yl)-3-(4-fluorobenzyl)pyrrolidin-2-one]: the IC50 on SARM1 lay in the range of 1000 to 10000 nM. The same measure, in the same setting: to `Cc1ccc(CC2CCN(c3ccc4c(c3)COc3cnccc3-4)C2=O)cc1` (stereo not drawn) [Compound 8] belongs 1000 to 10000 nM. On the same count and under the same terms, the same measure for `O=C1[C@H](Cc2ccc(F)cc2)CCN1c1ccc2c(c1)COc1cnccc1-2` [Compound 154]: less than 100 nM; for `Cc1c(NC(=O)CCc2ccc(F)cc2)ccc2c1COc1cnccc1-2` [Compound 131, 3-(4-fluorophenyl)-N-(7-methyl-6H-isochromeno[3,4-c]pyridin-8-yl)propanamide]: 1000 to 10000 nM; for `O=C(CCc1ccc(OC(F)(F)F)cc1)Nc1ccc2c(c1)COc1cnccc1-2` [Compound 24]: 100 to 1000 nM.

Turning to `O=C1C(Cc2ccc(C(F)(F)F)cc2)CCN1c1ccc2c(c1)COc1cnccc1-2` (stereo not drawn) [Compound 14], on SARM1, the IC50 fell in the range of 1000 to 10000 nM.
